In patent publication US11254663B2 (BRISTOL-MYERS SQUIBB COMPANY, priority 2019, dated 2022) one finds EC50 data, which are given here for 17 molecules.

For orientation: EC50 means the midpoint of the concentration-response curve. A high value points to weaker potency.

The assay addresses FXR (Homo sapiens (Human), UniProt Q96RI1). The assay is described as follows: FXR EC50 (FXR agonist potency reported with each Example). The format is cell-based.

Molecules are shown by their SMILES.

Chain of FXR (Q96RI1 262-486): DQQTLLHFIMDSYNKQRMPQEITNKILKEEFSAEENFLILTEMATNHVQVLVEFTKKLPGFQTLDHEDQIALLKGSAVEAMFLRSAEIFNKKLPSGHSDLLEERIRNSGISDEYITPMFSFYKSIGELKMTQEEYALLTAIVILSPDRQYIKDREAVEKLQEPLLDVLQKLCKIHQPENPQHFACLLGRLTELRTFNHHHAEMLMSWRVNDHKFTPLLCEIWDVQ

`O=C(C1CC(C(F)F)C1)N(CC12CCC(c3nc(C4CC4)no3)(CC1)OC2)c1cccc(-c2nc(C3CC3)no2)c1` (centres unmarked) [Example 198, N-((1-(3-cyclopropyl-1,2,4-oxadiazol-5-yl)-2-oxabicyclo[2.2.2]octan-4-yl)methyl)-N-(3-(3-cyclopropyl-1,2,4-oxadiazol-5-yl)phenyl)-3-(difluoromethyl)cyclobutane-1-carboxamide] gave an EC50 of 0.909 µM.
With `O=C(N1CCCC1)N(CC12CCC(c3nc(C4CC4)no3)(CC1)CC2)c1cccc(-c2nc(C3CC3)no2)c1` [Example 91, N-((4-(3-cyclopropyl-1,2,4-oxadiazol-5-yl)bicyclo[2.2.2]octan-1-yl)methyl)-N-(3-(3-cyclopropyl-1,2,4-oxadiazol-5-yl)phenyl)pyrrolidine-1-carboxamide] the figure was 0.322 µM; with `N#CC1(c2ccc(C34CCC(CN(C(=O)C56CC(F)(C5)C6)c5cccc(-c6nc(C7CC7)no6)c5)(CC3)CO4)cc2)CC1` [Example 146, N-((1-(4-(1-cyanocyclopropyl)phenyl)-2-oxabicyclo[2.2.2]octan-4-yl)methyl)-N-(3-(3-cyclopropyl-1,2,4-oxadiazol-5-yl)phenyl)-3-fluorobicyclo[1.1.1]pentane-1-carboxamide], 0.334 µM.
In turn, `O=C(C1CCC1)N(CC12CCC(c3nc(CC4CC4)no3)(CC1)CC2)c1cccc(-c2nc(CC3CC3)no2)c1` [Example 64, N-((4-(3-(cyclopropylmethyl)-1,2,4-oxadiazol-5-yl)bicyclo[2.2.2]octan-1-yl)methyl)-N-(3-(3-(cyclopropylmethyl)-1,2,4-oxadiazol-5-yl)phenyl)cyclobutanecarboxamide] gave an EC50 of 0.524 µM.
Regarding `O=C(C1CCC(F)(F)C1)N(CC12CCC(c3nc(C4CC4)no3)(CC1)CC2)c1cccc(-c2nc(C3CC3)no2)c1` (centres unmarked) [Example 11, N-((4-(3-cyclopropyl-1,2,4-oxadiazol-5-yl)bicyclo[2.2.2]octan-1-yl)methyl)-N-(3-(3-cyclopropyl-1,2,4-oxadiazol-5-yl)phenyl)-3,3-difluorocyclopentane-1-carboxamide], the midpoint of the response, the EC50, lay at 0.282 µM.
To `Cn1c(-c2cccc(N(CC34CCC(c5nc(C6CC6)no5)(CC3)CC4)C(=O)C34CC(F)(C3)C4)c2)nnc1C1CC1` [Example 132, N-((4-(3-cyclopropyl-1,2,4-oxadiazol-5-yl)bicyclo[2.2.2]octan-1-yl)methyl)-N-(3-(5-cyclopropyl-4-methyl-4H-1,2,4-triazol-3-yl)phenyl)-3-fluorobicyclo[1.1.1]pentane-1-carboxamide] belongs 4.41 µM; to `CC(=O)NC1(c2nc(-c3cccc(N(CC45CCC(c6nc(C7CC7)no6)(CC4)CC5)C(=O)C45CC(F)(C4)C5)c3)no2)CC1` [Example 111, N-(3-(5-(1-acetamidocyclopropyl)-1,2,4-oxadiazol-3-yl)phenyl)-N-((4-(3-cyclopropyl-1,2,4-oxadiazol-5-yl)bicyclo[2.2.2]octan-1-yl)methyl)-3-fluorobicyclo[1.1.1]pentane-1-carboxamide], 0.12 µM; to `N#CC1(c2ccc(C34CCC(CN(C(=O)C5CC(F)(F)C5)c5cccc(-c6nc(C7CC7)no6)c5)(CC3)CO4)cc2)CC1` [Example 142, N-((1-(4-(1-cyanocyclopropyl)phenyl)-2-oxabicyclo[2.2.2]octan-4-yl)methyl)-N-(3-(3-cyclopropyl-1,2,4-oxadiazol-5-yl)phenyl)-3,3-difluorocyclobutuane-1-carboxamide], 0.583 µM.
With `O=C(N(CC12CCC(c3cc(C(F)(F)F)ccn3)(CC1)CC2)c1cccc(-c2nc(C3CC3)no2)c1)C12CC(F)(C1)C2` [Example 50, N-(3-(3-cyclopropyl-1,2,4-oxadiazol-5-yl)phenyl)-3-fluoro-N-((4-(4-(trifluoromethyl)pyridin-2-yl)bicyclo[2.2.2]octan-1-yl)methyl)bicyclo[1.1.1]pentane-1-carboxamide] the figure was 0.462 µM; with `O=C(N(CC12CCC(c3nc(CC4CC4)no3)(CC1)CC2)c1cccc(-c2nc(CC3CC3)no2)c1)C12CC(F)(C1)C2` [Example 61, N-((4-(3-(cyclopropylmethyl)-1,2,4-oxadiazol-5-yl)bicyclo[2.2.2]octan-1-yl)methyl)-N-(3-(3-(cyclopropylmethyl)-1,2,4-oxadiazol-5-yl)phenyl)-3-fluorobicyclo[1.1.1]pentane-1-carboxamide], 0.099 µM; with `CCc1noc(-c2cccc(N(CC34CCC(c5nc(C6CC6)no5)(CC3)CC4)C(=O)[C@H]3C[C@](O)(C(F)(F)F)C3)c2)n1` [Example 5, (1s, 3s)-N-((4-(3-cyclopropyl-1,2,4-oxadiazol-5-yl)bicyclo[2.2.2]octan-1-yl)methyl)-N-(3-(3-ethyl-1,2,4-oxadiazol-5-yl)phenyl)-3-hydroxy-3-(trifluoromethyl)cyclobutane-1-carboxamide], 0.182 µM.
`COCc1nc(-c2cccc(N(CC34CCC(c5nc(C6CC6)no5)(CC3)CC4)C(=O)C3CCC(F)(F)C3)c2)cs1` (centres unmarked) [Example 74, N-((4-(3-cyclopropyl-1,2,4-oxadiazol-5-yl)bicyclo[2.2.2]octan-1-yl)methyl)-3,3-difluoro-N-(3-(2-(methoxymethyl)thiazol-4-yl)phenyl)cyclopentane-1-carb oxamide] came in with an EC50 of 0.22 µM. The EC50 values of the last two molecules are within 1.5-fold of each other.
With `O=C(N(CC12CCC(c3ccc(C(F)(F)F)cn3)(CC1)CC2)c1cccc(-c2noc(C(F)F)n2)c1)C12CC(F)(C1)C2` [Example 189, N-(3-(5-(difluoromethyl)-1,2,4-oxadiazol-3-yl)phenyl)-3-fluoro-N-((4-(5-(trifluoromethyl)pyridin-2-yl)bicyclo[2.2.2]octan-1-yl)methyl)bicyclo[1.1.1]pentane-1-carboxamide] the figure was 0.691 µM; with `CCOc1nnc(-c2cccc(N(CC34CCC(c5nc(C6CC6)no5)(CC3)CC4)C(=O)C3CC(C(F)F)C3)c2)o1` (centres unmarked) [Example 56, N-((4-(3-cyclopropyl-1,2,4-oxadiazol-5-yl)bicyclo[2.2.2]octan-1-yl)methyl)-3-(difluoromethyl)-N-(3-(5-ethoxy-1,3,4-oxadiazol-2-yl)phenyl)cyclobutane-1-carboxamide], 0.275 µM; with `CC(C)(C)c1nc(C23CCC(CN(C(=O)C45CC(F)(C4)C5)c4cccc(-c5nc(C6CC6)no5)c4)(CC2)CC3)no1` [Example 119, N-((4-(5-(tert-butyl)-1,2,4-oxadiazol-3-yl)bicyclo[2.2.2]octan-1-yl)methyl)-N-(3-(3-cyclopropyl-1,2,4-oxadiazol-5-yl)phenyl)-3-fluorobicyclo[1.1.1]pentane-1-carboxamide], 0.015 µM.
To `Cn1nc(C23CCC(CN(C(=O)C45CC(F)(C4)C5)c4cccc(-c5noc(C(C)(C)C)n5)c4)(CC2)CC3)cc1C1CC1` [Example 167, N-(3-(5-(tert-butyl)-1,2,4-oxadiazol-3-yl)phenyl)-N-((4-(5-cyclopropyl-1-methyl-1H-pyrazol-3-yl)bicyclo[2.2.2]octan-1-yl)methyl)-3-fluorobicyclo[1.1.1]pentane-1-carboxamide] belongs 0.069 µM; to `CC(C)(C)c1nc(C23CCC(CN(C(=O)C45CC(F)(C4)C5)c4cccc(-c5nnc(C6CC6)o5)c4)(CC2)CC3)no1` [Example 157, N-((4-(5-(tert-butyl)-1,2,4-oxadiazol-3-yl)bicyclo[2.2.2]octan-1-yl)methyl)-N-(3-(5-cyclopropyl-1,3,4-oxadiazol-2-yl)phenyl)-3-fluorobicyclo[1.1.1]pentane-1-carboxamide], 0.043 µM.
